The values that follow come from PMC6934184, “Selective DNA-PKcs inhibition extends the therapeutic index of localized radiotherapy and chemotherapy” (The Journal of Clinical Investigation, 2019).

This assay deals with T1, IGF1R (Homo sapiens, UniProt P08069).
T1 construct: purchased Thermo Fisher Scientific (Life Technologies) SelectScreen
The experiment in a line: SelectScreen Z'LYTE. It counts as biochemical. The essentials: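 Compound tested in SelectScreen activity assays, Z'LYTE for CSF1R, CDK1/cyclin B and MAP2K6 and Adapta for CAMK1. ATP for CAMK1 was listed as 10, and Km app was used for CSF1R. Results are expressed in percent.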

T1 sequence (P08069 31-1367): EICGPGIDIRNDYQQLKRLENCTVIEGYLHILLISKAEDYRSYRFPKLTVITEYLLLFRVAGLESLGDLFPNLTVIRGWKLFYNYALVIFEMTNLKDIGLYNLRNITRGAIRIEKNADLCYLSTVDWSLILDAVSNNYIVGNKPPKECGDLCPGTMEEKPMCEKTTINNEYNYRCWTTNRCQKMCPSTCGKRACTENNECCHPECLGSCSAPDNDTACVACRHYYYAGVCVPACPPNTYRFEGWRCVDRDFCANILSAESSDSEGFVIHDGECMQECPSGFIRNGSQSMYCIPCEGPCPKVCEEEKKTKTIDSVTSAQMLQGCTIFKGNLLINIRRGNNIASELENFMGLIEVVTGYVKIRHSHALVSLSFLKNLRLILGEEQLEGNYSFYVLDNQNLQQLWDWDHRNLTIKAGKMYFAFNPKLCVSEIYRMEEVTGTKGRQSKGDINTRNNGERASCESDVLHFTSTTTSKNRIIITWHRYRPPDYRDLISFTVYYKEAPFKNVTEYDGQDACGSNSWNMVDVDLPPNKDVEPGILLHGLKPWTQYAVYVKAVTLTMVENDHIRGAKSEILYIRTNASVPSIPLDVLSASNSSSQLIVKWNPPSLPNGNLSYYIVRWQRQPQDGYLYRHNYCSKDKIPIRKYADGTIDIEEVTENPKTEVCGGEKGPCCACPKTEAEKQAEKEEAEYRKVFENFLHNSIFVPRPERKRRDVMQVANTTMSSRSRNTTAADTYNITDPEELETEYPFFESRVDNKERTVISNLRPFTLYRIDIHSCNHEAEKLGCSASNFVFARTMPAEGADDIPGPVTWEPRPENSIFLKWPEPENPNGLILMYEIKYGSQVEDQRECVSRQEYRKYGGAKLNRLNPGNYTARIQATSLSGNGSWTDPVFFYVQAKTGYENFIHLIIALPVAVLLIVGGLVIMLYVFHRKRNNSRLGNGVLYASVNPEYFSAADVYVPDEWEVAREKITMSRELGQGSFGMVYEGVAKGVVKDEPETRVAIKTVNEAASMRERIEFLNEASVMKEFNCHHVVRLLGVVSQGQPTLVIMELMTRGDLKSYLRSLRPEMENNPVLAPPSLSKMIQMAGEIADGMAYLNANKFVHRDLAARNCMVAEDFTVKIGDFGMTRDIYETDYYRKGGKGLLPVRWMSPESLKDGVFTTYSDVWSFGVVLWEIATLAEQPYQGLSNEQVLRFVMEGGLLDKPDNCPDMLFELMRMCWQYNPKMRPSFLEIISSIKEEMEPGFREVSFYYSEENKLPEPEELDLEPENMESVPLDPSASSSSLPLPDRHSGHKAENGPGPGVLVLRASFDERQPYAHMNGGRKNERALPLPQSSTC

The inhibition is the change of the read-out against control, counted positive when it falls. Lower therefore signals little suppression. In the case of `CN(C(=O)CN1CCOCC1)c1ccc2sc3c(-c4cccc5c(=O)cc(N6CC7CCC(C6)O7)oc45)cccc3c2c1` [NU5455], the inhibition at 1 µM came to 9.7%.
